# Experimental data: US12011444B2, “N-substituted indole derivatives as PGE2 receptor modulators” (Idorsia Pharmaceuticals Ltd, priority 2015, dated 2024)
# Tests used:
# [1] = molecular target: PTGER2 (EP2) (Homo sapiens (Human), UniProt P43116); experiment: hEP2 b-arrestin assay (PathHunter HEK 293 PTGER2 b-arrestin cells); type: cell-based
# In short: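 HEK293 cells expressing ProLink-tagged EP2 and EA-fused β-arrestin 2 (enzyme fragment complementation) were seeded 24 h, pre-incubated with compound 15 min at 37 °C, then stimulated with 5 μM PGE2 (final) for 120 min.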
# [2] = molecular target: PTRGER4 (EP4) (Homo sapiens (Human), UniProt P35408); experiment: hEP4 b-arrestin assay (PathHunter HEK 293 PTGER4 b-arrestin cells); type: cell-based
# PTRGER4 (EP4), sequence (P35408 whole entry, looked up, the tested form may be a part): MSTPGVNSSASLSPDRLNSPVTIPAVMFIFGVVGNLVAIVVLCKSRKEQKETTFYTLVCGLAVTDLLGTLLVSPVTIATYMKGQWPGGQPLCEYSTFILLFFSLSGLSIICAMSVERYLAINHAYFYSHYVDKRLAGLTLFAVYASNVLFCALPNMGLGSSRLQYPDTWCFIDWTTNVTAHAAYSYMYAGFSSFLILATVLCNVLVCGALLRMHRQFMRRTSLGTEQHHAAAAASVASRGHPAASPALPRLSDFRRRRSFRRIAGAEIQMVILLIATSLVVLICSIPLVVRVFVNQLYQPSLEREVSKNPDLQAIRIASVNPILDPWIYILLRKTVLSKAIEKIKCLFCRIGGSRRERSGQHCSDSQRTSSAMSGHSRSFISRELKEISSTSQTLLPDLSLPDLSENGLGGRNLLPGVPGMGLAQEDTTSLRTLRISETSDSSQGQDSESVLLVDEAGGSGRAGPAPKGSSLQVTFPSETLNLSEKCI
# In short: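 Stably transfected HEK293 cells carrying EP4–ProLink and β-arrestin 2–EA (β-gal fragment complementation), pre-incubated with compound 15 min at 37 °C, then stimulated with PGE2 (20 nM final) for 120 min at 37 °C. Chemiluminescence read after 1 h detection reagent at room temperature; activity per concentration expressed as percent of DMSO control.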
# [3] = hEP2 b-arrestin assay (values without asterisk)
# [4] = hEP4 b-arrestin assay (values without asterisk)
# [5] = antagonistic activity on hEP2, mean where measured multiple times
# [6] = antagonistic activity on hEP4, mean where measured multiple times
# PTGER2 (EP2), sequence (P43116 whole entry, the tested form may be a part): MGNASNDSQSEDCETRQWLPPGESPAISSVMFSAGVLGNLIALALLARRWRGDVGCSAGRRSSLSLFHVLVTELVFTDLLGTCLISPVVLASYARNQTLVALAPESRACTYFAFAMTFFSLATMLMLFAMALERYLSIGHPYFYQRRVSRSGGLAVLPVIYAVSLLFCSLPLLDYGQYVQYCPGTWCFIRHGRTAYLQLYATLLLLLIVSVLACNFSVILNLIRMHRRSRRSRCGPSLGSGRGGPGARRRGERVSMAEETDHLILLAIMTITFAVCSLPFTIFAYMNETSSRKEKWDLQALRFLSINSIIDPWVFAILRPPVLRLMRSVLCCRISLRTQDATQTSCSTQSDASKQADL
"IC50 [1, 3] [nM]","IC50 [2, 4] [nM]","IC50 [1, 5] [nM]","IC50 [2, 6] [nM]",SMILES
3,44,–,–,"CCOc1cc(-c2cc(NCCn3c(C)cc4c(OC)ccc(F)c43)ncn2)ccc1NC(C)C(=O)O (racemic) [Example 839, rac-2-(2-Ethoxy-4-{6-[2-(7-fluoro-4-methoxy-2-methyl-indol-1-yl)-ethylamino]-pyrimidin-4-yl}-phenylamino)-propionic acid]"
–,–,3,84,"CCNc1cc(-c2cc(NCCn3c(C)cc4c(OC)ccc(F)c43)ncn2)cc(Cl)c1C(=O)O [compound 381, 2-Chloro-6-ethylamino-4-{6-[2-(7-fluoro-4-methoxy-2-methyl-indol-1-yl)-ethylamino]-pyrimidin-4-yl}-benzoic acid]"
–,–,22,313,CCOc1cc(-c2cc(NCCn3c(C)cc4c(Cl)cc(Cl)cc43)ncn2)ccc1C(=O)O [compound 279]
3,12,–,–,"CCOc1cc(-c2cc(NCCn3c(C)cc4c(OC)ccc(F)c43)ncn2)ccc1-c1noc(=O)[nH]1 [Example 830, 3-(2-Ethoxy-4-{6-[2-(7-fluoro-4-methoxy-2-methyl-indol-1-yl)-ethylamino]-pyrimidin-4-yl}-phenyl)-[1,2,4]oxadiazol-5(4H)-one]"
7,14,–,–,"CCOc1cc(-c2cc(NCCn3c(C)cc4c(OC)ccc(F)c43)ncn2)sc1NC(=O)CC [Example 1073, N-(3-Ethoxy-5-{6-[2-(7-fluoro-4-methoxy-2-methyl-indol-1-yl)-ethylamino]-pyrimidin-4-yl}-thiophen-2-yl)-propionamide]"
12,27,–,–,"CCOc1cc(-c2cc(NCCn3c(C#N)cc4c(Cl)cccc43)ncn2)ccc1NCC(=O)O [Example 915, (4-{6-[2-(4-Chloro-2-cyano-indol-1-yl)-ethylamino]-pyrimidin-4-yl}-2-ethoxy-phenylamino)-acetic acid]"
5,6,–,–,"COc1ccc(F)c2c1cc(C#N)n2CCNc1cc(-c2ccc3[nH]ncc3c2)ncn1 [Example 977, 7-Fluoro-1-{2-[6-(1H-indazol-5-yl)-pyrimidin-4-ylamino]-ethyl}-4-methoxy-1H-indole-2-carbonitrile]"
–,–,17,416,COc1ccc(F)c2c1cc(C)n2CCNc1cc(-c2cc(C)c(C(=O)O)c(F)c2)ncn1 [compound 277]
8,5,–,–,"COc1ccc(F)c2c1cc(C#N)n2CCNc1cc(-c2ccc(O)c(OC(F)(F)F)c2)ncn1 [Example 866, 7-Fluoro-1-{2-[6-(4-hydroxy-3-trifluoromethoxy-phenyl)-pyrimidin-4-ylamino]-ethyl}-4-methoxy-1H-indole-2-carbonitrile]"
485,167,–,–,"COc1ccc(F)c2c1cc(C#N)n2CCNc1cc(-c2ccc(CCC(=O)O)cc2)ncn1 [Example 1019, 3-(4-{6-[2-(2-Cyano-7-fluoro-4-methoxy-indol-1-yl)-ethylamino]-pyrimidin-4-yl}-phenyl)-propionic acid]"
234,507,–,–,"COc1ccc(F)c2c1cc(C#N)n2CCNc1cc(-c2cc(C(=O)O)cs2)ncn1 [Example 1008, 5-{6-[2-(2-Cyano-7-fluoro-4-methoxy-indol-1-yl)-ethylamino]-pyrimidin-4-yl}-thiophene-3-carboxylic acid]"
7,2,–,–,"COc1ccc(F)c2c1cc(C#N)n2CCNc1cc(-c2ccc(-c3nc[nH]c3C)cc2)ncn1 [Example 819, 7-Fluoro-4-methoxy-1-(2-{6-[4-(5-methyl-1H-imidazol-4-yl)-phenyl]-pyrimidin-4-ylamino}-ethyl)-1H-indole-2-carbonitrile]"
27,35,–,–,"CCOc1cc(-c2cc(NCCn3c(C#N)cc4c(OC)ccc(F)c43)ncn2)ccc1C=O [Example 992, 1-{2-[6-(3-Ethoxy-4-formyl-phenyl)-pyrimidin-4-ylamino]-ethyl}-7-fluoro-4-methoxy-1H-indole-2-carbonitrile]"
–,–,6,37,CNc1cc(-c2cc(NCCn3c(C)cc4c(OC)ccc(F)c43)ncn2)ccc1C(=O)O [compound 251]
20,31,–,–,"CCOc1cc(C(=O)O)cc(-c2cc(NCCn3c(C#N)cc4c(OC)ccc(F)c43)ncn2)c1 [Example 1002, 3-{6-[2-(2-Cyano-7-fluoro-4-methoxy-indol-1-yl)-ethylamino]-pyrimidin-4-yl}-5-ethoxy-benzoic acid]"
39,24,–,–,"COc1ccc(F)c2c1cc(C#N)n2CCNc1cc(-c2ccc(NC=O)cc2)ncn1 [Example 971, N-(4-{6-[2-(2-Cyano-7-fluoro-4-methoxy-indol-1-yl)-ethylamino]-pyrimidin-4-yl}-phenyl)-formamide]"

# The remaining lines, values behind:
SMILES,"IC50 [1, 3] [nM]","IC50 [2, 4] [nM]","IC50 [1, 5] [nM]","IC50 [2, 6] [nM]"
"Cc1cc2c(F)ccc(F)c2n1CCNc1cc(-c2ccc(C(=O)O)c(CCC(C)C)c2)ncn1 [compound 367, 4-{6-[2-(4,7-Difluoro-2-methyl-indol-1-yl)-ethylamino]-pyrimidin-4-yl}-2-(3-methyl-butyl)-benzoic acid]",–,–,14,961
"CCNC(=O)Nc1ccc(-c2cc(NCCn3c(C)cc4c(OC)cccc43)ncn2)cc1OC [compound 375, 1-Ethyl-3-(2-methoxy-4-{6-[2-(4-methoxy-2-methyl-indol-1-yl)-ethylamino]-pyrimidin-4-yl}-phenyl)-urea]",–,–,20,57
"COc1cc(F)cc2c1cc(C)n2CCNc1cc(-c2ccc(-c3noc(=O)[nH]3)cc2)ncn1 [compound 312, 3-(4-{6-[2-(6-Fluoro-4-methoxy-2-methyl-indol-1-yl)-ethylamino]-pyrimidin-4-yl}-phenyl)-4H-[1,2,4]oxadiazol-5-one]",–,–,44,85
"CCCSc1cc(-c2cc(NCCn3c(C)cc4c(C)ccc(Cl)c43)ncn2)ccc1C(=O)O [compound 334, 4-{6-[2-(7-Chloro-2,4-dimethyl-indol-1-yl)-ethylamino]-pyrimidin-4-yl}-2-propylsulfanyl-benzoic acid]",–,–,28,603
"CCSc1cc(-c2cc(NCCn3c(C)cc4c(C)ccc(Cl)c43)ncn2)ccc1C(=O)O [compound 146, 4-{6-[2-(7-Chloro-2,4-dimethyl-indol-1-yl)-ethylamino]-pyrimidin-4-yl}-2-ethylsulfanyl-benzoic acid]",–,–,8,334
Cc1cc(F)cc2c1cc(C)n2CCNc1cc(-c2cc(F)c(C(=O)O)s2)ncn1 [compound 48],–,–,24,351
COc1ccc(Cl)c2c1cc(C)n2CCNc1cc(-c2ccc3c(C(=O)O)n[nH]c3c2)ncn1 [compound 388],–,–,34,963
Cc1cc(F)cc2c1cc(C)n2CCNc1cc(-c2ccc(C(=O)O)c(C3CC3)c2)ncn1 [compound 354],–,–,32,772
CCC1NC(=O)c2ccc(-c3cc(NCCn4c(C)cc5c(C)ccc(F)c54)ncn3)cc21 (racemic) [compound 207],–,–,19,645
CCOc1cc(-c2cc(NCCn3c(C)cc4c(Cl)cccc43)ncn2)ccc1C(=O)O [compound 234],–,–,3,249
"CCCc1cc(-c2cc(NCCn3c(C)cc4c(C)ccc(F)c43)ncn2)ccc1C(=O)O [compound 147, 4-{6-[2-(7-Fluoro-2,4-dimethyl-indol-1-yl)-ethylamino]-pyrimidin-4-yl}-2-propyl-benzoic acid]",–,–,16,109
"CCc1cc(-c2cc(NCCn3c(C)cc4c(CC)cccc43)ncn2)ccc1C(=O)O [compound 118, 2-Ethyl-4-{6-[2-(4-ethyl-2-methyl-indol-1-yl)-ethylamino]-pyrimidin-4-yl}-benzoic acid]",–,–,612,933
"COc1cc(F)cc2c1cc(C)n2CCNc1cc(-c2ccc(-c3ccns3)cc2)ncn1 [compound 205, [2-(6-Fluoro-4-methoxy-2-methyl-indol-1-yl)-ethyl]-[6-(4-isothiazol-5-yl-phenyl)-pyrimidin-4-yl]-amine]",–,–,44,334
CCC(C)c1cc(-c2cc(NCCn3c(C)cc4c(C)ccc(F)c43)ncn2)ccc1C(=O)O (racemic) [compound 337],–,–,89,308
"COc1cccc2c1cc(C)n2CCNc1cc(-c2ccc(-c3cc(N)no3)cc2)ncn1 [compound 180, {6-[4-(3-Amino-isoxazol-5-yl)-phenyl]-pyrimidin-4-yl}-[2-(4-methoxy-2-methyl-indol-1-yl)-ethyl]-amine]",–,–,3,16
COc1cccc2c1cc(C)n2CCNc1cc(-c2cc(C)c(C(=O)O)s2)ncn1 [compound 51],–,–,3,143
CNc1cc(-c2cc(NCCn3c(C)cc4c(C)cc(F)cc43)ncn2)ccc1C(=O)O [compound 209],–,–,3,123
Cc1nc2cc(-c3cc(NCCn4c(C)cc5c(C)ccc(F)c54)ncn3)ccc2[nH]1 [compound 54],–,–,125,305
CCCc1cc(-c2cc(NCCn3c(C)cc4cc(Cl)cc(F)c43)ncn2)ccc1C(=O)O [compound 263],–,–,90,587
COc1cc(F)cc2c1cc(C)n2CCNc1cc(-c2ccc(-c3nc(C)no3)cc2)ncn1 [compound 301],–,–,103,358
"Cc1cc(F)c(F)c2c1cc(C)n2CCNc1cc(-c2ccc(-c3c[nH]cn3)cc2)ncn1 [compound 176, [2-(6,7-Difluoro-2,4-dimethyl-indol-1-yl)-ethyl]-{6-[4-(1H-imidazol-4-yl)-phenyl]-pyrimidin-4-yl}-amine]",–,–,36,71
COc1ccc(Cl)c2c1cc(C)n2CCNc1cc(-c2cc(F)c(C(=O)O)s2)ncn1 [compound 111],–,–,31,166
